Assays:
[1] = test system: HUVEC; assay: Antiangiogenic activity in HUVEC assessed as inhibition of VEGF-induced capillary tube formation incubated for 6 hrs by capillary tube formation assay; format: functional, cell-based; conditions: Homo sapiens
[2] = test system: Hepa1c1c7; assay: Activation of QR in mouse Hepa1c1c7 cells assessed as increase in QR activity at 20 uM incubated for 24 hrs by NADPH-dependent menadiol-mediated reduction of MTT based assay relative to control; format: cell-based; conditions: filed as activator

SMILES	IC50 [1]	fold change (FC) [2]
CC(C)C[C@H]1NC(=O)[C@@H]2CCCN2C(=O)[C@H]([C@@H](O)c2ccccc2)NC(=O)CNC(=O)[C@H](C(C)C)NC(=O)[C@H]2NC(=O)[C@@H](NC(=O)/C=C/c3ccccc3[C@H]3O[C@@H]3C)[C@@H](C)OC(=O)[C@@H](CC(N)=O)NC(=O)[C@H](NC(=O)[C@H](O)NC1=O)[C@@H](O)c1ccc(O)c(c1)Oc1ccc2cc1	8.9 µM	1.8
CCN(CC)CCNC(=O)c1c(C)[nH]c(/C=C2\C(=O)Nc3ccc(F)cc32)c1C [SUNITINIB]	2.1 µM	–

Source: ChEMBL document CHEMBL5120792, “Nyuzenamide C, an Antiangiogenic Epoxy Cinnamic Acid-Containing Bicyclic Peptide from a Riverine Streptomyces sp” (J Nat Prod, 2022)
